Measured values as given in patent publication US20120004235A1, “METHODS TO TREAT CANCER” (Rutgers, The State University of New Jersey, priority 2009, published 2012).
Where “and” joins values, the source holds several entries; their conditions need not be identical. Identical values can stand only once. Counter-ions that a name gives are not always drawn. Like-named read-outs stand apart in the source and are kept apart here.

Experiments:
[1] = test system: human HCT-116 colon ca, HT-29 colon ca and NCI-H460 NSCLC cells; test: 72 hour exposure concentration response in tumor cells (Example 22); assay type: cell-based; details: range over HCT-116, HT-29 and NCI-H460 cells and the three compounds
Method: The in vitro and in vivo activity of compound 2 and two of its metabolites (compound 5 and compound 6) were explored and compared with the activity of camptothecin Top1 inhibitors. […] In human HCT-116 colon ca, HT-29 colon ca and NCI-H460 NSCLC cells the concentration response for compound 2, compound 5 and compound 6 were the same. […] Compound 2 was administered intravenously on a QODx3 schedule for 2 cycles.

[2] = test system: Human HCT-116 Colon Tumor Xenograft Model; test: Test D xenograft, Compound 2 and metabolites; details: qod × 3 for 2 cycles
[3] = test system: MDA-MB-231 human breast tumor xenograft; details: for animals not yet reached the study endpoint of 1500 mm^3: Day 90
[4] = test system: NCI-H460 human non-small cell lung carcinoma xenograft; test: Comparison dose schedule study in the NCI-H460 xenograft model; assay type: in vivo, nude (nu/nu) mice
From the text: Irinotecan served as the positive control.

[5] = test system: Human DLD-1 Colon Tumor Xenograft Model; test: Test D xenograft, Compound 2 free base; assay type: in vivo, nu/nu mice; details: 60 mg/kg/day IV
[6] = test system: Human HCT-15 Colon Tumor Xenograft Model; test: Test D xenograft, Compound 2 free base; assay type: in vivo, nu/nu mice; details: 60 mg/kg/day IV, q4d×3
[7] = test system: HCT-116 human colon tumor xenograft; test: Compound 2 after oral administration vs. the HCT-116 xenograft model; details: 60 mg/kg/day IP, q4d×3
[8] = test system: Human 786-0 Renal Cell Tumor Xenograft Model; test: Test D xenograft, Compound 2 free base; assay type: in vivo, nu/nu mice; details: 60 mg/kg/day IV, q4d×3
[9] = test system: HCT-116 human colon tumor xenograft; test: Compound 2 citrate salt vs. HCT-116 human colon tumor xenograft model (IV)
[10] = test system: HT-29 human colon tumor xenograft; test: Compound 2 citrate salt vs. HT-29 human colon tumor model
[11] = test system: Human H460 Non-Small Cell Lung Carcinoma Tumor Xenograft Model; test: Test D xenograft, Compound 2 free base; assay type: in vivo, nu/nu mice; details: qod × 3
Method: (§1) The anti-tumor activity of Compound 2 (free base) was evaluated against a variety of human tumor xenograft models. A summary of the studies, including tumor type, dosing and administration, growth inhibition, and major findings is presented below.

[12] = test system: NCI-H460 human non-small cell lung carcinoma xenograft; test: Compound 2 citrate salt vs. NCI-H460 xenograft model (pemetrexed, topotecan, cisplatin controls); details: for mean tumor volume of the animals not at endpoint: 3 animals
[13] = test system: Human H1299 Lung Tumor Xenograft Model; test: Test D xenograft, Compound 2 free base; details: qod × 3
[14] = test system: Human MDA-MB-231 Breast Tumor Xenograft Model; test: Test D xenograft, Compound 2 free base; details: qod × 3
[15] = test system: NCI-H460 human non-small cell lung carcinoma xenograft; test: Compound 2 citrate salt vs. NCI-H460 xenograft model (docetaxel control)
[16] = test system: Human NCI-H292 Lung Tumor Xenograft Model; test: Test D xenograft, Compound 2 free base; details: qod × 3
[17] = test system: Human SK-MEL-3 Melanoma Tumor Xenograft Model; test: Test D xenograft, Compound 2 free base; assay type: in vivo, nu/nu mice; details: 90 mg/kg/day IP, qd × 5
Method: as §1

[18] = test system: Human LOX-IMVI Melanoma Tumor Xenograft Model; test: Test D xenograft, Compound 2 free base; details: 90 mg/kg/day IP, qd × 5
[19] = 60 mg/kg/day IP, qod×3 weekly for 2 cycles
[20] = 2.04 mg/kg/day IP, qod×3 weekly for 2 cycles
[21] = 2.72 mg/kg/day IP, qod×3 weekly for 2 cycles
[22] = all dosages (0.68, 1.36, 2.72 mg/kg IP, qod×3 weekly for 2 cycles)
[23] = 1.36 mg/kg/day IV, qod×3 weekly for 2 cycles
[24] = 2.72 mg/kg/day IV, qod×3 weekly for 2 cycles
[25] = 2.72 mg/kg/day IP, qod×3 weekly for 2 cycles, Day 53
[26] = 4.08 mg/kg/day IP, qod×3 weekly for 2 cycles

CNCCn1c(=O)c2cc(O)c(OC)cc2c2cnc3cc4c(cc3c21)OCO4 [Compound 5]
IC50 ([1]; read-out: IC50 concentrations): 0.5 to 0.65 nM | IC90 ([1]; read-out: IC90 concentrations): 1.8 to 2 nM | Increase in Life Span (ILS) ([2]; 4 mg/kg/day IV): 1.8x | Tumor Growth Delay T-C ([2]; 4 mg/kg/day IV): 25 days | Tumor Growth Inhibition T/C (tumor volume) ([2]; 4 mg/kg/day IV): 27.3% | Increase in Life Span (ILS) ([2]; 6 mg/kg/day IV): 1.9x | Tumor Growth Delay T-C ([2]; 6 mg/kg/day IV): 28 days | Tumor Growth Inhibition T/C (tumor volume) ([2]; 6 mg/kg/day IV): 23.4% | Increase in Life Span (ILS) ([2]; 8 mg/kg/day IV): 2.0x | Tumor Growth Delay T-C ([2]; 8 mg/kg/day IV): 32 days | Tumor Growth Inhibition T/C (tumor volume) ([2]; 8 mg/kg/day IV): 27.2%

CCc1c2c(nc3ccc(OC(=O)N4CCC(N5CCCCC5)CC4)cc13)-c1cc3c(c(=O)n1C2)COC(=O)[C@]3(O)CC [Irinotecan, reference compound]
ILS [3, 19]: > 2.0 fold | TGD (T-C) [3, 19]: 38 days | TGI (T/C) [3, 19]: 10% | body weight loss [3, 19]: 20% | ILS ([4]; 60 mg/kg/day IP, q4d×3): 1.7 fold | TGD (T-C) ([4]; 60 mg/kg/day IP, q4d×3): 14 days | ILS [4, 19]: 2.5 fold | TGD (T-C) [4, 19]: 29 days | TGI (T/C) [4, 19]: 19.0% | Tumor Growth Delay T-C ([5]; q4d×3): 5 days | Increase in Life Span (ILS) ([5]; q4d × 3, listed as CPT-11): 1.1x | Increase in Life Span (ILS) [6]: 1.7x | Tumor Growth Delay T-C [6]: 28 days | ILS [7]: > 1.5 fold | TGD (T-C) [7]: > 18 days | body weight loss [7]: < 10% | animals remaining at study termination ([7]; Day 53): 8 of 9 | Increase in Life Span (ILS) [8]: 1.4x | Tumor Growth Delay T-C [8]: 17 days | ILS ([9]; 60 mg/kg/day IV, q4d×3): 1.5 fold | TGD (T-C) ([9]; 60 mg/kg/day IV, q4d×3): 14 days | tolerability ([9]; 60 mg/kg/day IV, q4d×3): tolerated well | TGD ([10]; 60 mg/kg/day IV, q4d×3): no TGD was observed | TGI (T/C) ([10]; 60 mg/kg/day IV, q4d×3): 52.7% | tolerability ([10]; 60 mg/kg/day IV, q4d×3): well tolerated

N.N.[Cl][Pt][Cl] [Cisplatin]
Increase in Life Span (ILS) ([11]; 3.3 mg/kg/day IP): 1.4x | Tumor Growth Delay T-C ([11]; 3.3 mg/kg/day IP): 11 days | Tumor Growth Inhibition T/C (tumor volume) ([11]; 3.3 mg/kg/day IP): 44.5% | antitumor activity ([12]; 0.75 and 1.5 mg/kg/day IP, qd×5): only active at the high dose | antitumor activity (TGI and TGD evaluation points) ([12]; high dose (1.5 mg/kg/day IP, qd×5)): low activity at both evaluation points

CC(=O)O[C@@]12CO[C@@H]1C[C@H](O)[C@@]1(C)C(=O)[C@H](O)C3=C(C)[C@@H](OC(=O)[C@H](O)[C@@H](NC(=O)OC(C)(C)C)c4ccccc4)C[C@@](O)([C@@H](OC(=O)c4ccccc4)[C@H]21)C3(C)C [Docetaxel, reference compound]
Increase in Life Span (ILS) ([11]; 12 mg/kg/day IV): 1.4x | Tumor Growth Delay T-C ([11]; 12 mg/kg/day IV): 11 days | Tumor Growth Inhibition T/C (tumor volume) ([11]; 12 mg/kg/day IV): 49.8% | Increase in Life Span (ILS) ([13]; 16 mg/kg/day IV): 1.4x | Tumor Growth Delay T-C ([13]; 16 mg/kg/day IV): 11 days | Tumor Growth Inhibition T/C (tumor volume) ([13]; 16 mg/kg/day IV): 35.2% | Increase in Life Span (ILS) ([13]; 20 mg/kg/day IV): 1.6x | Tumor Growth Delay T-C ([13]; 20 mg/kg/day IV): 17 days | Tumor Growth Inhibition T/C (tumor volume) ([13]; 20 mg/kg/day IV): 20.7% | Increase in Life Span (ILS) ([14]; 16 mg/kg/day IV): >2.3x | Tumor Growth Delay T-C ([14]; 16 mg/kg/day IV): >47 days | Tumor Growth Inhibition T/C (tumor volume) ([14]; 16 mg/kg/day IV): 4.8% | Increase in Life Span (ILS) ([14]; 20 mg/kg/day IV): >2.3x | Tumor Growth Delay T-C ([14]; 20 mg/kg/day IV): >47 days | Tumor Growth Inhibition T/C (tumor volume) ([14]; 20 mg/kg/day IV): 4.0% | TGD (T-C) ([15]; 20 mg/kg/day IV, qod × 3): 21 days | TGI (T/C) ([15]; 20 mg/kg/day IV, qod × 3): 22.7% | time to recover the weight loss ([15]; 20 mg/kg/day IV, qod × 3): ≤ 13 days | toxic deaths ([15]; 20 mg/kg/day IV, qod × 3): no toxic deaths | maximum weight loss ([15]; 20 mg/kg/day IV, qod×3, on Day 25): 26.4% | Increase in Life Span (ILS) ([16]; 16 mg/kg/day IV): 2.1x | Tumor Growth Delay T-C ([16]; 16 mg/kg/day IV): 39 days | Tumor Growth Inhibition T/C (tumor volume) ([16]; 16 mg/kg/day IV): 8.7% | Increase in Life Span (ILS) ([16]; 20 mg/kg/day IV): 2.1x | Tumor Growth Delay T-C ([16]; 20 mg/kg/day IV): 39 days | Tumor Growth Inhibition T/C (tumor volume) ([16]; 20 mg/kg/day IV): 6.0%

CN(C)/N=N/c1[nH]cnc1C(N)=O [Dacarbazine, reference compound]
Increase in Life Span (ILS) [17]: 1.0x | Tumor Growth Delay T-C [17]: 0 days | Tumor Growth Inhibition T/C (tumor volume) [17]: 88.5% | Increase in Life Span (ILS) [18]: 2.0x | Tumor Growth Delay T-C [18]: 28 days and 14 days | Tumor Growth Inhibition T/C (tumor volume) [18]: 80.6%

CNCCn1c(=O)c2cc(OC)c(OC)cc2c2cnc3cc4c(cc3c21)OCO4 [Compound 2 citrate salt, 8,9-dimethoxy-2,3-methylenedioxy-5-[2-(N-methylamino)ethyl]-5H-dibenzo[c,h]1,6-naphthyridin-6-one]
TGD [3, 20]: 52 days | animals not yet reached the study endpoint of 1500 mm^3 [3, 20]: 2 of 8 | TGD [3, 21]: > 58 days | animals not yet reached the study endpoint of 1500 mm^3 [3, 21]: 4 of 8 | ILS ([3]; 3.27 mg/kg/day IP, qd×5): > 2.0 fold | TGD (T-C) ([3]; 3.27 mg/kg/day IP, qd×5): 42 days | TGI (T/C) ([3]; 3.27 mg/kg/day IP, qd×5): 9.5% | maximum weight loss ([3]; 3.27 mg/kg/day IP, qd×5): 15.7% | mice remaining on Day 90 ([3]; 3.27 mg/kg/day IP, qd×5): one | maximum weight loss ([4]; 4.90 mg/kg/day IP, q4d×5, on Day 34): 24.2% | ILS [15, 21]: 2.0 fold | TGD (T-C) [15, 21]: 24 days | TGI (T/C) [15, 21]: 35.1% | body weight loss [15, 22]: < 20% | toxic deaths [15, 22]: no toxic deaths | ILS [9, 23]: 1.6 fold | TGD (T-C) [9, 23]: 18 days | TGI (T/C) [9, 23]: 45.0% | ILS [9, 24]: > 2.2 fold | TGD [9, 24]: > 34 days | mice survivors at conclusion of the study ([9]; 2.72 mg/kg/day IV, qod×3 weekly for 2 cycles, Day 62): 50% | weight loss ([9]; 5.44 mg/kg/day IV, qod×3 weekly for 2 cycles): > 30% | toxic deaths ([9]; 5.44 mg/kg/day IV, qod×3 weekly for 2 cycles, groups of 8): ⅝ | TGI (T/C) ([12]; 2.59 mg/kg/day IP, qd×5): 30.5% | toxic deaths [12, 21]: no toxic deaths | animals not yet reached the study endpoint of 2000 mm^3 [12, 25]: 3 of 8 | weight loss recovered at study termination [12, 25]: approximately 12% | mean tumor volume of the animals not at endpoint [12, 25]: 1583 mm^3 | maximum weight loss ([12]; 2.72 mg/kg/day IP, qod×3 weekly for 2 cycles, on Day 22): 22.3% | TGI (T/C) ([12]; 3.27 mg/kg/day IP, qd×5): 33.5% | animals not yet reached the study endpoint of 2000 mm^3 ([12]; 3.27 mg/kg/day IP, qd×5): 3 of 8 | mean tumor volume of the animals not at endpoint ([12]; 3.27 mg/kg/day IP, qd×5): 1722 mm^3 | TGI (T/C) [10, 21]: 50.1% | TGD ([10]; 2.72 mg/kg/day IP, qod×3 weekly for 2 cycles, vs untreated control): 16 days | ILS [10, 26]: 1.7 fold | TGD (T-C) [10, 26]: 31 days | TGI (T/C) [10, 26]: 18.9% | tolerability ([10]; dose levels tested (1.36, 2.72, 4.08 mg/kg/day IP, qod×3 weekly for 2 cycles)): well tolerated
